Values quoted from earlier work, collected in US20260272868A1 (priority 2022, published 2026).
Read-outs that look alike come from different tables or passages of the source.

Biological target: T1, 5-HT2A receptor (Homo sapiens, UniProt P28223)
T1 construct: (~mg per ~70 kg human, route); host or cells: human subjects (in vivo doses)
Conditions: cited from earlier work

T1 sequence (P28223 whole entry): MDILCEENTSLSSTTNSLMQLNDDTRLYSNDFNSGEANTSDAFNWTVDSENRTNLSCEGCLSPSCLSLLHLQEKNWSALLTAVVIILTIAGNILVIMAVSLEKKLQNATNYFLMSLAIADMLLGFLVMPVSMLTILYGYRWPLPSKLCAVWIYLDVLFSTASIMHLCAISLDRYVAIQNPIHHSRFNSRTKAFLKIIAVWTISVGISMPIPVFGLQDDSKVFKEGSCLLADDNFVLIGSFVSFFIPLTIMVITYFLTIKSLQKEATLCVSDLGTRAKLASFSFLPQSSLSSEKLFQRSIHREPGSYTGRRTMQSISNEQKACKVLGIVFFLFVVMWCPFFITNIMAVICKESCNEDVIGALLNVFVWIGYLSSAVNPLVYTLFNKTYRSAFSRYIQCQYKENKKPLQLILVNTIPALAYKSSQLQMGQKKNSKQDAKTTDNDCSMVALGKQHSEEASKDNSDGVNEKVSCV

COc1ccc2[nH]cc(CCN(C)C)c2c1 [5-MeO-DMT, 5-methoxy-N,N-dimethyltryptamine]
Typical Fully Psychedelic Dose Range (smoked): 5-10, smoked ~mg per ~70 kg human

CCN(CC)C(=O)[C@@H]1C=C2c3cccc4[nH]cc(c34)C[C@H]2N(C)C1 [LSD, lysergic acid diethylamide]
Typical Fully Psychedelic Dose Range (oral): 0.1-0.2, oral ~mg per ~70 kg human

COc1cc(CC(C)N)c(OC)cc1C (centres unmarked) [DOM, 2,5-dimethoxy-4-methylamphetamine]
Typical Fully Psychedelic Dose Range (oral): 3-5, oral ~mg per ~70 kg human

COc1cc(CCN)c(OC)cc1Br [2C-B]
Typical Fully Psychedelic Dose Range (oral): 15-25, oral ~mg per ~70 kg human

CN(C)CCc1c[nH]c2cccc(O)c12 [psilocin]
Typical Fully Psychedelic Dose Range (oral): 15-25, oral ~mg per ~70 kg human

COc1cc(CCN)cc(OC)c1OC [mescaline]
Typical Fully Psychedelic Dose Range (oral): 200-400, oral ~mg per ~70 kg human

CCc1cc(OC)c(CCN)cc1OC [2C-E, 2-(4-Ethyl-2,5-dimethoxyphenyl)ethanamine]
Typical Fully Psychedelic Dose Range (oral): 10-20, oral ~mg per ~70 kg human

CN(C)CCc1c[nH]c2ccccc12 [DMT, N,N-dimethyltryptamine]
Typical Fully Psychedelic Dose Range (smoked): 20-40, smoked ~mg per ~70 kg human
